Assay results: patent US20230348486A1, “NEAR-INFRARED EMITTING PORPHYRIN COMPOUND AND PREPARATION METHOD AND USE THEREOF” (PEKING UNIVERSITY, priority 2020, published 2023)

What was measured:
[1] = test system: A375 human malignant melanoma cells; assay: Cytophototoxicity test (CCK-8) under white light; assay type: cell-based; settings: A-375, 0.5 h, white light 400-700 nm, about 6.5 mW/cm^2, 30 minutes, read-out: median lethal concentration IC50
Protocol: (§1) The cells used in the experiment included HeLa human cervical cancer cells, HepG2 human liver cancer cells, A375 human malignant melanoma cells, MCF7 human breast cancer cells, and HCT 116 human colon cancer cells. The cells were cultured in DMEM complete medium supplemented with 10% inactivated fetal bovine serum and 1% penicillin-streptomycin at 37° C. under the atmosphere of 5% carbon dioxide.
(§2) After trypsinized, the subculture HeLa cells were dispersed in the medium at appropriate concentration. Then, the dispersed HeLa cells were seeded into a poly-D-lysine modified flat-bottom 96-well plate, so that the amount of medium and the number of cells in each well were 200 µL and about 10^4, respectively, except a group of wells containing medium free of cells for blank control. After culturing the cells in the dark for 24 hours, the medium was removed, and 100 µL of fresh medium and 100 µL of pre-prepared medium solution containing molecule 6 synthesised in Example 6 were added, and then the sample was diluted to a gradient concentration of 0.1-5 µM. After culturing in the dark for another 24 hours, the medium was removed, and each well was rinsed 3 times with PBS (pH=7.4). 100µL of PBS buffer was added to each well, and irradiated
(§3) by white light (400-700 nm) with the same light intensity (about 6.5 mW/cm^2) under bromo-tungsten lamp for 30 minutes. The PBS in each well was removed and replaced with 200 µL of fresh medium to continue culturing for 24 hours. After that, the medium was removed and the wells were rinsed 3 times with PBS. Then 100 µL of 10% CCK-8 reagent (Cell Counting Kit-8) formulated with medium was added into each well to culture the cells for 2 hours. Meanwhile, 2-(2-methoxy-4-nitrophenyl)-3-(4-nitrophenyl)-5-(2,4-disulfonic acid benzene)-2H-[…] monosodium salt (WST-8) can be reduced by living cells together with electronic coupling reagents to yield a yellow product of formazan, accordingly changing the absorbance of the solution at 450 nm, and there was a direct proportional relationship between the change level and the number of living cells. The absorbance change of each well at 450 nm was measued by a microplate reader, and the cell survival rates at various culture concentrations were calculated according to the following equation: […]
(§4) wherein CV refers to the cell survival rate; As, Ac and Ab refer to the absorbance of the cells cultured with the compound, the absorbance of the cells cultured without the compound and the absorbance of the blank control, respectively.
(§5) The median lethal concentrations IC50 of molecule 6 in different cell lines were calculated according to the cell survival rates at various culture concentrations, and the results were shown as follows: […]

[2] = test system: HCT 116 human colon cancer cells; assay: Cytophototoxicity test (CCK-8) under white light; assay type: cell-based; settings: HCT-116, 0.5 h, HCT116, white light 400-700 nm, about 6.5 mW/cm^2, 30 minutes, read-out: median lethal concentration IC50
Protocol: as §1, §2, §3, §4, §5

[3] = test system: HeLa human cervical cancer cells; assay: Cytophototoxicity test (CCK-8) under white light; assay type: cell-based; settings: 24 h incubation in the dark, white light 400-700 nm, about 6.5 mW/cm^2, 30 minutes, CCK-8 after 24 hours, read-out: median lethal concentration IC50
Protocol: as §1, §2, §3, §4, §5

[4] = test system: HepG2 human liver cancer cells; assay: Cytophototoxicity test (CCK-8) under white light; assay type: cell-based; settings: 0.5 h, white light 400-700 nm, about 6.5 mW/cm^2, 30 minutes, read-out: median lethal concentration IC50
Protocol: as §1, §2, §3, §4, §5

[5] = test system: MCF7 human breast cancer cells; assay: Cytophototoxicity test (CCK-8) under white light; assay type: cell-based; settings: 0.5 h, white light 400-700 nm, about 6.5 mW/cm^2, 30 minutes, read-out: median lethal concentration IC50
Protocol: as §1, §2, §3, §4, §5

[6] = test system: A375 human malignant melanoma cells; assay: Animal test of photodynamic therapy, subcutaneous tumor model; assay type: in vivo, BALB/C nude mice; settings: skin application, 10 mg·kg^-1, light 400-700 nm, 2 weeks, FIG. 2
Protocol: BALB/C nude mice, which were 4-5 weeks old, females, 16-25 grams, were used in the in vivo experiment. Each mouse was inoculated with 100ul (5×10^6) of A375 human malignant melanoma cells subcutaneously in the right scapula, and the experiment was carried out two weeks later.
The nude mice were randomly individed to control group and skin application group with 6 mice in each group. The control group was only irradiated with light (tungsten lamp, 400-700 nm, 6.5 mW/cm^2) without administration, and the 1 mM/20 ul aqueous solution of molecule 6 was administrated to the skin application group in an amount of 10 mg·kg^-1 based on the weights of the nude mice. After administrated, the animals were protected from light for 24 hours, and then were each individually irradiated on their tumor sites for 30 minutes a day for consecutive 3 days. The nude mice were not protected from light after the treatment, and were took care in a breeding cage to observe the side effects such as skin phototoxicity appeared on each group of nude mice. After irradiated, the weights of nude mice were measured and their tumor volume were determined with vernier calipers every two days. After 2 weeks of treatment, the lumps were peeled off and weighed.

Q: What does the source list for `C[N+](C)(C)c1c(F)c(F)c(-c2c3nc(c(-c4c(F)c(F)c([N+](C)(C)C)c(F)c4F)c4ccc([nH]4)c4c(nc5oc6c(F)c([N+](C)(C)C)c(F)c(F)c6c5c5ccc2[nH]5)oc2c(F)c([N+](C)(C)C)c(F)c(F)c24)C=C3)c(F)c1F` [molecule 6]?
A: IC50 [1]: 4750 ± 500 nM; IC50 [2]: 1520 ± 200 nM; IC50 [3]: 2690 ± 100 nM; IC50 [4]: 800 ± 100 nM; IC50 [5]: 850 ± 100 nM; change of tumor size (growth of subcutaneous tumors) ([6]; 6.5 mW/cm^2, 30 minutes a day for 3 days): effectively inhibit the growth of subcutaneous tumors; change of weight of the mice ([6]; 30 minutes a day for 3 days): no significant decrease
